In PMC8778818, “Synthesis, Structural Characterization and Anticancer Activity of New 5-Trifluoromethyl-2-thioxo-thiazolo[4,5-d]pyrimidine Derivatives” (Pharmaceuticals, 2022):
“Also recorded” adds a separate entry of the source.

Legend:
SF-539 = assay: NCI-60 screen, CNS Cancer SF-539; format: cell-based, human; settings: SF-539, 10^−5 M one dose
UACC-62 = assay: NCI-60 screen, Melanoma UACC-62; format: cell-based, human; settings: UACC-62, 10^−5 M one dose
786-0 = assay: NCI-60 screen, Renal Cancer 786-0; format: cell-based; settings: 786-0, 10^−5 M one dose
A375 = assay: MTT cell viability assay, A375; format: cell-based, human; settings: Homo sapiens, A-375, 72 h, A375, MTT, mean ± SD
Procedure: (§1) Twelve compounds (2a-e, 3a-d and 4a-c) at a concentration range of 50–5000 μM were tested for their antiproliferative potential against four human cancer cell lines (A375—melanotic melanoma, C32—amelanotic melanoma, DU145—prostate cancer androgen-independent, MCF-7/WT—breast adenocarcinoma) and two normal cell lines: Chinese Hamster Ovary (CHO-K1) and immortalized human keratinocytes from histologically normal skin (HaCaT).
(§2) To determine the antiproliferative activity of newly synthesized compounds, the following cell lines were used: human melanotic melanoma cell line (A375), human amelanotic melanoma cell line (C32), human breast adenocarcinoma cell line (MCF-7/WT), human prostate cancer androgen-independent (DU145) and two normal cell lines: hamster ovarian (CHO-K1) and immortalized human keratinocytes from histologically normal skin (HaCaT). The cells were obtained from the cell line bank of the Department of Molecular and Cellular Biology, Wroclaw Medical University. A375, C32, MCF-7/WT, DU145 and HaCaT cells were grown in a monolayer cultured in Dulbecco’s Modified Eagle’s Medium (DMEM, Sigma-Aldrich, Poznań, Poland), supplemented with 10% of fetal bovine serum (FBS, Gibco, Paisley, UK) and 1% of antibiotics (penicillin/streptomycin, Sigma-Aldrich) and CHO-K1 were grown in HAM’s F-12 medium (Sigma-Aldrich), supplemented with 10% fetal bovine serum (FBS, Gibco) and 1% of antibiotics (penicillin/streptomycin, Sigma-Aldrich). Cell lines were cultured in the polystyrene flasks 25 or 75 cm^2 (Thermo Fisher Scientific, Waltham, MA, USA), which were stored in 37 °C and 5% CO2 in a humidified 95% atmosphere (SteriCult, Thermo Scientific, Alab). The cell medium was exchanged twice a week. The exponentially growing cells were used throughout the experiments. The cells were rinsed with phosphate-buffered saline (PBS, Sigma-Aldrich) and trypsinized by Trypsin-EDTA 0.25% solution (Sigma-Aldrich).
(§3) The influence of the compounds was performed in a monolayer culture on cancer and normal cells. Compounds were initially dissolved in DMSO; further dilutions of the compound were performed in Dulbecco’s Modified Eagle’s Medium supplemented with 10% FBS. Compounds were tested in a 50–5000 µM concentration range. In the in vitro experiments, the concentrations of DMSO in the final solution of the compounds were used 0.05%; 0.1%; 0.5%; 1%, respectively.
(§4) Cell viability was determined using the MTT colorimetric assay. All cell lines were seeded into 96-well plates to a density of 3 × 10^4 cells/well. After 24 h, the culture supernatants were removed and appropriate dilutions of compounds in the culture medium (200 µL/well) were added to the cells’ monolayer cultures and incubated for an additional 72 h. After 72 h of exposition to the compounds and the removal of the culture medium, cell viability was determined by reducing the yellow dye 3-(4,5-dimethyl-2-thiazol)-2,5-diphenyl-2H-tetrazolium bromide (MTT assay, Sigma Saint Louis, MO, USA; In Vitro Toxicology Assay) to a blue formazan product. The absorbance of the resulting solutions in three duplicate experiments was measured at the wavelength of 560 nm in a microplate reader (EnSpire, Perkin Elmer, Kraków, Poland). MTT assay is a colorimetric method that estimates the rate of metabolism in viable cells. Absorbance is directly proportional to the number of viable cells. All the experiments were performed three times and the mean absorbance values were calculated. The methodology for the evaluation of the growth of human cancer and normal cells was described previously. The cell viability in each group was expressed as a percentage of control (untreated) cells.

[1] = tested on: 60 human cancer cell lines; assay: NCI-60 anticancer screen, full panel; format: cell-based; settings: 10^−5 M one dose; for Mean Growth %: mean over the panel
CHO-K1 = assay: MTT cell viability assay, CHO-K1; format: cell-based, Chinese Hamster; settings: Cricetulus griseus; CHO-K1 normal cells, MTT, 72 h, mean ± SD
Procedure: as §1, §2, §3, §4

ACHN = assay: NCI-60 screen, Renal Cancer ACHN; format: cell-based, human; settings: 10^−5 M one dose
NCI-H226 = assay: NCI-60 screen, Non-Small Cell Lung Cancer NCI-H226; format: cell-based, human; settings: NCI-H226, 10^−5 M one dose
HT29 = assay: NCI-60 screen, Colon Cancer HT29; format: cell-based, human; settings: HT29, 10^−5 M one dose
HCC-2998 = assay: NCI-60 screen, Colon Cancer HCC-2998; format: cell-based, human; settings: HCC-2998, 10^−5 M one dose
DU-145 = assay: NCI-60 screen, Prostate C. DU-145; format: cell-based; settings: DU-145, 10^−5 M one dose
K-562 = assay: NCI-60 screen, Leukemia K-562; format: cell-based, human; settings: K-562, 10^−5 M one dose
MCF-7/WT = assay: MTT cell viability assay, MCF-7/WT; format: cell-based; settings: Homo sapiens, MCF7, 72 h, mean ± SD
Procedure: as §1, §2, §3, §4

NCI-H23 = assay: NCI-60 screen, Non-Small Cell Lung Cancer NCI-H23; format: cell-based, human; settings: NCI-H23, 10^−5 M one dose
UACC-257 = assay: NCI-60 screen, Melanoma UACC-257; format: cell-based; settings: UACC-257, 10^−5 M one dose
SF-268 = assay: NCI-60 screen, CNS Cancer SF-268; format: cell-based, human; settings: SF-268, 10^−5 M one dose
HS 578T = assay: NCI-60 screen, Breast Cancer HS 578T; format: cell-based, human; settings: 10^−5 M one dose
A498 = assay: NCI-60 screen, Renal Cancer A498; format: cell-based, human; settings: A498, 10^−5 M one dose
NCI-H322M = assay: NCI-60 screen, Non-Small Cell Lung Cancer NCI-H322M; format: cell-based, human; settings: 10^−5 M one dose
RPMI-8226 = assay: NCI-60 screen, Leukemia RPMI-8226; format: cell-based, human; settings: RPMI-8226, 10^−5 M one dose

SMILES	Growth of Cells (%) (SF-539)	Growth of Cells (%) (UACC-62)	Growth of Cells (%) (786-0)	IC50 (A375) [µM]	activity in the one-dose assay (in words) [1]	Mean Growth % [1] [%]	IC50 (CHO-K1) [µM]	Growth of Cells (%) (ACHN)	Growth of Cells (%) (NCI-H226)	Growth of Cells (%) (HT29)	Growth of Cells (%) (HCC-2998)	Growth of Cells (%) (DU-145)	Growth of Cells (%) (K-562)	IC50 (MCF-7/WT) [µM]	Growth of Cells (%) (NCI-H23)	Growth of Cells (%) (UACC-257)	Growth of Cells (%) (SF-268)	Growth of Cells (%) (HS 578T)	Growth of Cells (%) (A498)	Growth of Cells (%) (RPMI-8226)	also measured
CCNc1nc(C(F)(F)F)nc2c1sc(=S)n2-c1ccccc1 [Compound 4b, 7-(ethylamino)-3-phenyl-5-(trifluoromethyl)[1, 3]thiazolo[4,5-d]pyrimidine-2(3H)-thione]	100.98	93.86	101.39	524 ± 22.3	insufficient activity; also recorded: inactive	96.94	237 ± 10.1	93.13	88.51	88.76	115.06	101.28	102.59	686 ± 29.3	93.44	98.66	104.72	106.83	–	–	–
O=c1[nH]c(C(F)(F)F)nc2c1sc(=S)n2-c1ccccc1 [Compound 2b, 3-phenyl-2-thioxo-5-(trifluoromethyl)-2,3-dihydro[1, 3]thiazolo[4,5-d]pyrimidin-7(6H)-one]	114.10	109.52	104.97	367 ± 15.1	insufficient activity	103.88	319 ± 13.1	110.42	103.60	100.96	116.48	109.40	115.47	557 ± 22.9	112.30	107.08	101.77	65.01	90.58	108.14	Growth of Cells (%) (NCI-H322M): 128.80%
Fc1ccc(CNc2nc(C(F)(F)F)nc3c2sc(=S)n3-c2ccccc2)cc1 [Compound 4c]	102.28	105.93	99.38	507 ± 22.1	insufficient activity; also recorded: inactive	105.13	549 ± 24	99.14	112.41	103.27	118.24	122.63	107.45	568 ± 24.8	–	96.72	109.32	125.43	121.43	104.96	–
